Source: ChEMBL document CHEMBL1201862, “PubChem BioAssay data set” (2004)
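Five concentrations, 48 hours, 96-well plates. Abbreviation: GI50, concentration required for 50% inhibition of growth.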 Active and inactive are the calls of the source. No stated cut-off is given here; in the data, active = GI50 up to about 1.1 µM and inactive = higher.

Tests used:
Test in all cases: growth of human tumour cells (NCI), 48 h
KM12 = system: KM12
ACHN = system: ACHN
SN12C = system: SN12C
Malme-3M = system: Malme-3M
KM-20L2 = system: KM-20L2
LOX IMVI = system: LOX IMVI
RXF 393 = system: RXF 393
HOP-62 = system: HOP-62
OVCAR-5 = system: OVCAR-5
SF-268 = system: SF-268
TK-10 = system: TK-10
SK-OV-3 = system: SK-OV-3
SK-MEL-5 = system: SK-MEL-5
IGROV-1 = system: IGROV-1
COLO 205 = system: COLO 205
NCI-H226 = system: NCI-H226
M19-MEL = system: M19-MEL
K562 = system: K562
NCI-H460 = system: NCI-H460
SF-539 = system: SF-539
OVCAR-4 = system: OVCAR-4
DMS-273 = system: DMS-273
UACC-62 = system: UACC-62
A498 = system: A498
SF-295 = system: SF-295
XF498 = system: XF498
NCI-H522 = system: NCI-H522
DMS-114 = system: DMS-114
OVCAR-8 = system: OVCAR-8
SNB-19 = system: SNB-19
HT-29 = system: HT-29
CAKI-1 = system: CAKI-1
HOP-92 = system: HOP-92
MOLT-4 = system: MOLT-4
UO-31 = system: UO-31
LXFL 529 = system: LXFL 529
HL-60 = system: HL-60
CCRF-CEM = system: CCRF-CEM
DLD-1 = system: DLD-1
A549 = system: A549
SK-MEL-28 = system: SK-MEL-28
EKVX = system: EKVX
SR = system: SR
786-0 = system: 786-0
UACC-257 = system: UACC-257
HCT-15 = system: HCT-15
SW-620 = system: SW-620
U-251 = system: U-251
HCT-116 = system: HCT-116
SK-MEL-2 = system: SK-MEL-2
HCC 2998 = system: HCC 2998
RPMI-8226 = system: RPMI-8226
NCI-H23 = system: NCI-H23
OVCAR-3 = system: OVCAR-3
M14 = system: M14

## CCN(CC)c1c(C(=O)/C=C/c2ccccc2)c(-c2ccccc2)nn(C)c1=O
KM12
  GI50: 4.18 µM (inactive)
ACHN
  GI50: 8.51 µM (inactive)
SN12C
  GI50: 4.68 µM (inactive)
Malme-3M
  GI50: 2.8 µM (inactive)
KM-20L2
  GI50: 5.06 µM (inactive)
LOX IMVI
  GI50: 3.55 µM (inactive)
RXF 393
  GI50: 3.98 µM (inactive)
HOP-62
  GI50: > 100 µM (inactive)
OVCAR-5
  GI50: 6.53 µM (inactive)
SF-268
  GI50: 5.98 µM (inactive)
TK-10
  GI50: > 100 µM (inactive)
SK-OV-3
  GI50: > 100 µM (inactive)
SK-MEL-5
  GI50: 5.02 µM (inactive)
IGROV-1
  GI50: 9.79 µM (inactive)
COLO 205
  GI50: 5.81 µM (inactive)
NCI-H226
  GI50: 93.1 µM (inactive)
M19-MEL
  GI50: > 100 µM (inactive)
K562
  GI50: 2.52 µM (inactive)
NCI-H460
  GI50: 3.83 µM (inactive)
SF-539
  GI50: 21.3 µM (inactive)
OVCAR-4
  GI50: 4.78 µM (inactive)
DMS-273
  GI50: 4.98 µM (inactive)
UACC-62
  GI50: 5.41 µM (inactive)
A498
  GI50: 5.43 µM (inactive)
SF-295
  GI50: 6.01 µM (inactive)
XF498
  GI50: 11.2 µM (inactive)
NCI-H522
  GI50: 6 µM (inactive)
DMS-114
  GI50: 5.32 µM (inactive)
OVCAR-8
  GI50: 5.37 µM (inactive)
SNB-19
  GI50: 29.4 µM (inactive)
HT-29
  GI50: 5.48 µM (inactive)
CAKI-1
  GI50: > 100 µM (inactive)
HOP-92
  GI50: 45.1 µM (inactive)
MOLT-4
  GI50: 1.66 µM (inactive)
UO-31
  GI50: > 100 µM (inactive)
LXFL 529
  GI50: 5.01 µM (inactive)
HL-60
  GI50: 4.22 µM (inactive)
CCRF-CEM
  GI50: 2.2 µM (inactive)
DLD-1
  GI50: 3.27 µM (inactive)
A549
  GI50: 5.37 µM (inactive)
SK-MEL-28
  GI50: 7.14 µM (inactive)
EKVX
  GI50: 8.3 µM (inactive)
SR
  GI50: 3.21 µM (inactive)
786-0
  GI50: 7.31 µM (inactive)
UACC-257
  GI50: 8.17 µM (inactive)

## CCOC(=O)/C=C/n1c2ccccc2c(=O)c2ccccc21
KM12
  GI50: > 100 µM (inactive)
ACHN
  GI50: > 100 µM (inactive)
SN12C
  GI50: > 100 µM (inactive)
Malme-3M
  GI50: > 100 µM (inactive)
KM-20L2
  GI50: > 100 µM (inactive)
LOX IMVI
  GI50: > 100 µM (inactive)
HCT-15
  GI50: > 100 µM
SW-620
  GI50: > 100 µM (inactive)
RXF 393
  GI50: > 100 µM (inactive)
HOP-62
  GI50: > 100 µM (inactive)
U-251
  GI50: > 100 µM (inactive)
SF-268
  GI50: > 100 µM (inactive)
TK-10
  GI50: > 100 µM (inactive)
IGROV-1
  GI50: > 100 µM (inactive)
COLO 205
  GI50: > 100 µM (inactive)
NCI-H226
  GI50: > 100 µM (inactive)
M19-MEL
  GI50: > 100 µM (inactive)
K562
  GI50: > 100 µM (inactive)
NCI-H460
  GI50: > 100 µM (inactive)
SF-539
  GI50: > 100 µM (inactive)
OVCAR-4
  GI50: > 100 µM (inactive)
DMS-273
  GI50: > 100 µM (inactive)
HCT-116
  GI50: > 100 µM (inactive)
UACC-62
  GI50: > 100 µM (inactive)
A498
  GI50: > 100 µM (inactive)
SK-MEL-2
  GI50: > 100 µM (inactive)
HCC 2998
  GI50: > 100 µM (inactive)
SF-295
  GI50: > 100 µM (inactive)
XF498
  GI50: > 100 µM (inactive)
NCI-H522
  GI50: > 100 µM (inactive)
DMS-114
  GI50: > 100 µM (inactive)
RPMI-8226
  GI50: > 100 µM (inactive)
OVCAR-8
  GI50: > 100 µM (inactive)
SNB-19
  GI50: > 100 µM (inactive)
HT-29
  GI50: > 100 µM (inactive)
CAKI-1
  GI50: > 100 µM (inactive)
MOLT-4
  GI50: > 100 µM (inactive)
NCI-H23
  GI50: > 100 µM (inactive)
UO-31
  GI50: > 100 µM (inactive)
LXFL 529
  GI50: > 100 µM (inactive)
HL-60
  GI50: > 100 µM (inactive)
CCRF-CEM
  GI50: > 100 µM (inactive)
OVCAR-3
  GI50: > 100 µM (inactive)
DLD-1
  GI50: 23.1 µM (inactive)
A549
  GI50: > 100 µM (inactive)
SK-MEL-28
  GI50: > 100 µM (inactive)
EKVX
  GI50: > 100 µM (inactive)
SR
  GI50: > 100 µM (inactive)
M14
  GI50: > 100 µM (inactive)
786-0
  GI50: > 100 µM (inactive)
UACC-257
  GI50: > 100 µM (inactive)
